Results: patent US7763626B2, “Compositions and method for enhancing the therapeutic activity of opiods in treatment of pain” (Trustees of Dartmouth College, priority 2004, dated 2010)

Columns and labels:
Type in all cases: in vivo, rat
Male Sprague-Dawley rats [1] = assay: Paw pressure test (Analgesy-Meter), morphine withdrawal-induced mechanical hyperalgesia
Protocol: (§1) Male Sprague-Dawley rats (175-200 grams, Harlan, Indianapolis, Ind.) were divided into two groups (n=8 per group). Rats received subcutaneous injections of either saline or morphine (10 mg/kg; Sigma, St. Louis, Mo.) twice daily at 0800 to 0900 and 1600-1700 hour for 5 days in order to induce opioid tolerance. Chronic morphine withdrawal-induced hyperalgesia and allodynia were assessed in the animals 16 hours after the last injection of morphine. Following the recording of morphine withdrawal-induced hyperalgesia and allodynia, animals were treated with morphine (5 microgram) acutely via lumbar intrathecal injection to study the expression of morphine tolerance. Acute analgesic activity or intrathecal morphine in morphine-tolerant and chronic aline-treated rats were evaluated by mechanical (Analgesy-Meter) and thermal (tail-flick) test paradigms. Behaviors recorded prior to the acute administration of intrathecal morphine served as the basal latency measures.
(§2) With an understanding of the effects of morphine alone, separate groups of rats (n=8) received with saline or morphine (10 mg/kg subcutaneously, twice daily for 5 days) and also received once daily injections (at 1100 to 1200 hour) of propentofylline (1 and 10 micrograms) or saline via direct lumbar puncture during the induction of morphine tolerance. Again, chronic morphine withdrawal-induced hyperalgesia and allodynia were assessed in the animals 16 hours after the last subcutaneous morphine injection. Following the recording of morphine withdrawal-induced hyperalgesia and allodynia, animals were treated with morphine (5 micrograms) acutely via lumbar puncture to study the expression of morphine tolerance. As before, the acute analgesic activity of intrathecal morphine in morphine-tolerant and saline-injected rats was evaluated by mechanical (Analgesy-Meter) and thermal (tail-flick) test paradigms. Behavior recorded prior to the acute administration of intrathecal morphine served as the basal latency.
(§3) In blinded testing, rats were subjected to sequential series of 10 tactile stimulations to the dorsal surface of the ipsilateral hindpaw using […] von Frey filaments (Stoelting Co., WoodDale, Ill.) sequentially. The number of foot withdrawals to this normally non-noxious stimulus determined mechanical allodynia. Mechanical sensitivity was assessed by recording the total number of responses elicited during three successive trials separated by at least 10 minutes. The pressure required to elicit paw withdrawal, the paw pressure threshold was determined.

Male Sprague-Dawley rats [2] = assay: Morphine tolerance model, acute intrathecal morphine evaluated by thermal and mechanical test paradigms
Protocol: as §1
as §2, with “Following the recording of morphine withdrawal-induced hyperalgesia and allodynia, animals were treated with morphine (5 micrograms) acutely via lumbar puncture to study the expression of morphine tolerance.” left out
as §3
Thermal nociceptive thresholds were evaluated by the hot water tail-flick test that has been described previously (Bian, D. et al. 1999. Brain Res. 831:55-63). […] Again, the total number of responses elicited during three successive trials separated by at least 10 minutes was recorded and then expressed as the % maximal possible effect. […]

IL-6 mRNA = assay: RNase protection assay, cytokine mRNA at L5 lumbar spinal cord; settings: propentofylline 10 micrograms intrathecally for 5 days during induction of morphine tolerance
Protocol: (§5) After behavioral testing for reactions to the combined treatment, rats were sacrificed and decapitated. An 18-gauge needle was inserted into the caudal end of the vertebral column and the spinal cord was expelled with ice-cold phosphate-buffered saline. The spinal cord was frozen immediately on dry ice and stored at −80° C. until homogenization. The L5 lumbar spinal cord was isolated from the intact frozen cord at the time of mRNA and protein quantification. Total RNA was isolated from the L5 spinal cord by the TRIzol extraction method (Invitrogen Corporation, Carlsbad, Calif).
(§6) Assessment of the temporal cytokine mRNA expression in the L5 lumber spinal cord was performed using a Ribonuclease Protection Assay technique. A Multiprobe RPAse kit was used (Pharmingen, San Diego, Calif.). Total RNA (15 μg) was hybridized to ^32P-labeled antisense RNA probes transcribed using the rat cytokine-1 (rCK-1) multiprobe template set resulting in double-stranded target RNA. After Rnase digestion, protected RNA and probe were resolved on a denaturing polyacrylamide gel and visualized by overnight autoradiography. Quantitative image analysis was employed to compare mRNA levels based on band intensities for each cytokine. The intensity of each band was measured using image analysis software and assigned an arbitrary unit based on the measured intensity levels. The value for the normalized quantity for each band was obtained by dividing by the L32 house-keeping gene control. Individual mRNA concentration was calculated as the ratio of the expression compared with saline-treated animals in which normal values were weighted as 1.

Mac-1 mRNA = assay: Real-time PCR of Mac-1 mRNA at L5 lumbar spinal cord
Protocol: Total RNA was treated with DNase I (Ambion, Austin, Tex.) to remove DNA contamination before cDNA synthesis. The reverse transcription (RT) was carried out in a 100 μl total reaction volume containing RT buffer, dNTPs, multiscribe reverse transcriptase, RNase-free water and 10 μg of DNase-treated total RNA. The RT reaction was carried out at 25° C. for 10 minutes, 37° C. for 120 minutes, and 95° C. for 5 minutes. Real-time PCR analysis was performed using gene-specific primers and probes that were designed and blasted against GENBANK to confirm their species and gene specificity. […] The real-time PCR reactions were carried out using Platinum Taq DNA polymerase, 20 mM Tris HCl (pH 8.4), 50 mM KCl, 3 mM MgCl2, 200 μM dGTP, dCTP, and dATP, 400 μM of dUTP and 1 U uracyl DNA glycosylase (UDG), 900 nM forward and reverse primers, 300 nM TaqMan probe, and 10-fold dilution of cDNA (50 ng) from the RT step. Primers and probes for glyceraldehyde-3-phosphate (GADPH), GFAP and Mac-1 were obtained form Applied Biosystems (LaJolla, Calif.). The relative standard curves generated by plotting the threshold value versus the log of the amount of total cDNA added to the reaction (1-10000 pg) were used to compare the relative amount of target genes from control and chronic morphine-treated animals.

IL-1β mRNA = assay: RNase protection assay, cytokine mRNA at L5 lumbar spinal cord; settings: propentofylline 10 micrograms intrathecally for 5 days during induction of morphine tolerance
Protocol: as §5, §6

Male Sprague-Dawley rats [3] = assay: Mechanical allodynia (von Frey filaments), morphine withdrawal
Protocol: as §1, §2
Mechanical sensitivity was measured as the frequency of foot withdrawals elicited by a defined mechanical stimulus. Each rat, under unrestrained conditions, was placed beneath an inverted, ventilated Plexiglas cage upon an elevated aluminum screen surface with 1 cm mesh openings. Animals had been previously acclimated to the environment and the experimenter.
as §3

TNF-α protein = assay: Cytokine protein estimation by ELISA at L5 spinal cord; settings: propentofylline 10 micrograms intrathecally for 5 days during induction of morphine tolerance
Protocol: (§4) Quantitative determination of IL-1β, TNF-α and IL-6 protein was performed on the L5 spinal cord of the rats. […] Briefly, weighed sections of L5 spinal cord were homogenized in a homogenization buffer consisting of a protease inhibitor using the a Power Gen 125 tissue tearer (Fisher Scientific, Suwanee, Ga.). Samples were spun at 20,000×g for 30 minutes at 4° C. Supernatant was aliquoted and stored at −80° C. for future protein quantification. IL-1β and TNF-α (R&D Systems, Minneapolis, Minn.) and IL-6 (Biosource, Camarillo, Calif.) protein concentrations were determined utilizing the quantitative sandwich enzyme immunoassay.

IL-6 protein = assay: as above; settings: propentofylline 10 micrograms intrathecally for 5 days during induction of morphine tolerance
Protocol: as §4

IL-1β protein = assay: as above; settings: propentofylline 10 micrograms intrathecally for 5 days during induction of morphine tolerance
Protocol: as §4

[4] = 16 hours after last morphine injection (10 mg/kg s.c. twice daily 5 days), propentofylline 1 and 10 micrograms intrathecally for 5 days during induction of tolerance
[5] = propentofylline 10 micrograms intrathecally for 5 days

CCCn1cnc2c1c(=O)n(CCCCC(C)=O)c(=O)n2C [propentofylline]
119.4 ± 5.4 grams: Paw pressure latency (Male Sprague-Dawley rats [1]; 16 hours after last injection, morphine 10 mg/kg s.c. twice daily 5 days and/or propentofylline 10 micrograms intrathecally once daily 5 days)
no effect: anti-nociceptive activity of acute intrathecal morphine (5 micrograms) in chronic saline-treated rats (Male Sprague-Dawley rats [2]; [5]) | nociceptive threshold in saline-treated rats (Male Sprague-Dawley rats [2]; [5]) | Mac-1 mRNA levels at the L5 lumbar spinal cord (Mac-1 mRNA; compared to saline-treated controls, morphine 10 mg/kg twice daily 5 days, or propentofylline 10 micrograms intrathecally 5 days in saline-treated rats)
significantly attenuated: morphine withdrawal-induced mechanical hyperalgesia (Male Sprague-Dawley rats [1]; [4]) | expression of spinal nociceptive tolerance to intrathecal morphine (5 micrograms) (Male Sprague-Dawley rats [2]; propentofylline 1 and 10 micrograms intrathecally for 5 days during induction of morphine tolerance, thermal and mechanical test paradigms) | morphine-induced mRNA upregulation for IL-6 (IL-6 mRNA) | chronic morphine-induced upregulation of Mac-1 (Mac-1 mRNA; propentofylline during the induction phase of morphine tolerance) | morphine-induced mRNA upregulation for IL-1β (IL-1β mRNA) | morphine withdrawal-induced mechanical allodynia (Male Sprague-Dawley rats [3]; [4]) | morphine-induced TNF-α protein levels (TNF-α protein) | morphine-induced IL-6 protein levels (IL-6 protein) | morphine-induced IL-1β protein levels (IL-1β protein)
0: Mechanical allodynia (2 grams) (Male Sprague-Dawley rats [3]; number of foot withdrawals, 2 grams von Frey filament, morphine 10 mg/kg s.c. twice daily 5 days and/or propentofylline 10 micrograms intrathecally) | Mechanical allodynia (12 grams) (Male Sprague-Dawley rats [3]; number of foot withdrawals, 12 grams von Frey filament, morphine 10 mg/kg s.c. twice daily 5 days and/or propentofylline 10 micrograms intrathecally)
